Results reported in patent US6465396B1, “Method to promote growth of a plant” (Nara Institute of Science and Technology, priority 1999, dated 2002).
Read-outs that look alike come from different tables or passages of the source.

Key:
[1] = test system: rice
Experimental: The seeds of rice (Oryza sativa L.: Hinihikari) were used for the experiments. The plants were seeded under a vermiculight. They were grown under a light intensity of 150 μmol quanta/m^2.s for 16 hours in the light and 8 hours in the dark. Normal leaves derived from the plant bodies of 2 to 4 weeks old were used for the following experiments.
(§3) In the case of rice plant, a portion containing petiole was excised from the plant bodies and it was immersed into 10 ml of sample compound in a tube. It was incubated for 30 min at 25° C. under 150 μmol quanta/m^2·s of illumination. […] After the administration, water in the leaf disk was excluded, the leaf was set in the chamber and the ability of photosynthesis was measured on the leaf. […]
(§4) After measurement of rate of photosynthesis as described above, the air without carbon dioxide was introduced into the chamber and the light was illuminated at the intensity of 1600 μmol quanta/m^2·s for a certain period. […] The rate of oxygen generation was measured after this treatment and inhibition of photosynthetic ability caused by photo-oxidation damage was thus evaluated.
(§5) To estimate sanity of photo-system, the fluorescence originated from chlorophyl, the center of photo-system, was measured on rice under the same condition described above after photo-oxidation damage. […] The fluorescence was measured before and after photo-oxidation damage to estimate Fv/Fm value.

[2] = test system: rice (Oryza sativa L.: Hinihikari); test: Photo-oxidation damage, photosynthetic ability as oxygen generation rate, rice leaves; conditions: for residual photosynthetic ability (oxygen generation rate): when control sample was reduced to 30%, concentration not given, FIG. 15
[3] = test system: kidney bean; conditions: FIG. 19
Experimental: The seeds of kidney bean (Phaseolus vulgaris L.: tsurunashiinngenn) were used for the experiments. The plants were seeded under a vermiculight. They were grown under the light intensity of 150 μmol quanta/m^2·s. Normal leaves derived from the plant bodies of 2 to 4 weeks old were used for the experiments.
as §3, §4, §5

[4] = test system: tabacco; conditions: FIG. 18
Experimental: The seeds of tabacco (Nicotina tabacum L.: SRI) were used for the experiment. The plants were seeded under a vermiculight. They were grown under the light intensity of 150 μmol quanta/m^2·s. Normal leaves derived from the plant bodies of 4 to 6 weeks old were used for the experiments.
In the case of rice plant, a portion containing petiole was excised from the plant bodies and it was immersed into 10 ml of sample compound in a tube. It was incubated for 30 min at 25° C. under 150 μmol quanta/m^2·s of illumination. After administration of sample compounds, the leaves of rice were sliced and put in a chamber with diameter of 35 mm and the rate of oxygen generation (μmol O2/m^2·s) was estimated. In the case of other plants, a leaf disk with diameter of 35 mm was prepared prior to the experiment. […] After the administration, water in the leaf disk was excluded, the leaf was set in the chamber and the ability of photosynthesis was measured on the leaf. […]
After measurement of rate of photosynthesis as described above, the air without carbon dioxide was introduced into the chamber and the light was illuminated at the intensity of 1600 μmol quanta/m^2·s for a certain period. […] The rate of oxygen generation was measured after this treatment and inhibition of photosynthetic ability caused by photo-oxidation damage was thus evaluated. […]

[5] = test system: rice plant bodies; test: Plant growth test, rice; assay type: in vivo, Oryza sativa L.; conditions: 2 weeks cultivation
Description: The effect of formate salts addition observed on plant growth was investigated. The seeds of rice were sterilized and seeded into a glass tube (130 mm×40 mm I.D) containing medium described below. The contents of the medium are ½MS salt, 0.1% gellan gum and various concentrations of sodium formate. The pH was adjusted to 6.0 by addition of 1N sodium hydroxide and the medium was sterilized by autoclave treatment. […] After cultivation for 2 weeks under this condition, the extent of growth was estimated by measurement of length of the aerial part and wet weight of plant bodies.

[6] = test system: FDH gene; conditions: ground part (root) of rice; pretreatment with formic acid administration; FIG. 14
Experimental: In the case of utilization for northern analysis, total RNA was isolated from leaf and root of rice cultivated under condition described above, using Isogen RNA purification kit (Nippon gene).
RNA was prepared from the aerial part and the ground part (root) respectively and the northern analysis was performed on these samples. Forty μg of the total RNA was applied to each lane and electrophoresis was performed on 1% agarose gel (containing 2.2 M formaldehyde). The gel was charged for the capillary blotting using Hybond N+membrane (Amersham) using 20×SSC. The hybridization was performed according to instruction of AlkPhosDIREST (Amersham) and detection was performed using CDP-Star (Amersham). The FDH cDNA (open reading frame:1130 bp), amplified by PCR, was used as probe DNA.

[7] = test system: formate dehydrogenase (FDH); conditions: root of rice cultivated in the presence of 1.4 mM formic acid, 25° C., two weeks; FIG. 12
Experimental: Then the alteration of FDH activity by administration of formic acid was investigated. The rice plant bodies were cultivated in the presence or absence of 1.4 mM formic acid at 25° C. for two weeks. The aerial part and the ground part (root) was separated and the crude enzyme solution was prepared from each part. The enzyme solution was prepared to 1.5 mg/ml and FDH activities of the samples were measured. The FDH activity was measured using [^13C] formic acid as the substrate and detecting [^13C] CO2 in the supernatant by GC-MS.

[8] = test system: kidney bean (Phaseolus vulgaris L.: tsurunashiinngenn); conditions: 2 mM, FIG. 5
Experimental: (§1) The plants were seeded under a vermiculight.
(§2) Generation of oxygen was measured by clark type oxygen electrode. The cuvette (LD2/2 type), the oxygen electrode controller (CB 1-D3 type) and the light source (LS-2, Hansatec corp.) were adopted as components of the measuring device. The chamber of cuvette contained in this device is composed of combination of a chamber, capable of hermetically sealing with diameter of 35 mm and volume of 5 ml, and an oxygen electrode. As upper side of the chamber is transparent, arbitrary intensity of light can be illuminated. The plant body described above, after administration of formic acid, was enclosed in the chamber and sealed hermetically. It was illuminated using a halogen lamp as the light source, and the rate of oxygen generation was measured under the air containing 5% of carbon dioxide. Unless specified otherwise, the measurement was performed under the light adjusted to a intensity of 253 μmol quanta/m^2·s using a red filter or an attenuation filter. The oxygen generation was calculated by dividing the obtained value with the surface area of the leaf.

[9] = test system: tabacco (Nicotina tabacum L.: SRI); conditions: 2 mM, FIG. 6
Experimental: as §1, §2

CO [methanol]
reduction of Fv/Fm value caused by photo-oxidation damage ([1]; 25 mM or 50 mM, FIG. 17): significant inhibition | photosynthetic ability under various light intensities after photo-oxidation damage ([2]; methanol, especially under strong light illumination, FIG. 16): avoided photo-oxidation damage | residual photosynthetic ability (oxygen generation rate) [2]: 70% | damage on photo-system by chlorophyl fluorescence analysis ([3]; 100 mM): significantly alleviated | damage on photo-system by chlorophyl fluorescence analysis ([4]; 100 mM): significantly alleviated

O=C[O-].[Na+] [formate salt]
photosynthetic ability under various light intensities after photo-oxidation damage ([2]; formate salt, strong light illumination (inclination not altered under weak light), FIG. 3): inhibited damage on photosynthetic ability under strong light illumination | residual photosynthetic ability (oxygen generation rate) [2]: 60%

O=C[O-].[Na+] [sodium formate]
growth promotion, wet weight of plant bodies ([5]; 125 ppm in medium, FIG. 8): 25% | growth promotion, length of aerial part ([5]; 125 ppm in medium, FIG. 9): 25% | growth promotion effect ([5]; 1000 ppm in medium): disappeared

O=CO [formic acid]
expression of FDH gene [6]: significant increase | FDH activity compared to control group [7]: about twice | damage on photo-system by chlorophyl fluorescence analysis ([3]; 2 mM): potency | damage on photo-system by chlorophyl fluorescence analysis ([4]; 2 mM): potency

O=C[O-].[K+] [potassium formate, Potassium formate]
dose-dependency of protection on photo-oxidation damage ([2]; 2 mM or 4 mM, FIG. 4): optimum protection | oxygen generation activity retained after photo-oxidation damage ([2]; 2 mM, 8 min strong light illumination in the absence of carbon dioxide, control reduced to about 30%, FIG. 1): 90% | time course of damage on photosynthetic ability ([2]; 2 mM, photo-oxidation damage treatment 2 min, 4 min, FIG. 2): the damage on photosynthetic ability was inhibited | effect on oxygen generation rate reduction caused by photo-oxidation damage [8]: exhibited inhibition | effect on oxygen generation rate reduction caused by photo-oxidation damage [9]: exhibited inhibition

O=CO [formate]
damage on photo-system (Fv/Fm) caused by photo-oxidation damage ([1]; 2 mM, FIG. 7): avoided
